For assay [1], the system named is F. novicida (strain U112). In kind it is cell-based.
Assay [2] has as its system influenza A H1N1 virus. The note with it: 48 hr post-treatment, A549.
Assay [3] relates to EBV.
The test system of assay [4] is HCV replicon. Type of assay: cell-based.
Assay [5] concerns HIV1 strain NL4-3. Type of assay: cell-based.
The mark [6] stands for this setting: normalized mean of EBV replication readout, peptide screen.
Where [7] appears, read: normalized mean of HCV replicon readout, peptide screen.
Setting [8] is: normalized mean of HIV1 replication readout, peptide screen.
Setting [9] is: normalized mean of EBV replication readout.
The mark [10] stands for this setting: normalized mean of HCV replicon readout.
Setting [11] is: normalized mean of HIV1 replication readout.

Where two headings read alike, the source gives them in different places.

For the substance LGNIKGILGKKDKDG [CPEP51], in assay [1], the “Francisella novicida Norm AUC” value was 1.389. In addition, the “Neuraminidase activity normalized to vehicle” value in assay [2] (200 µM peptide) was 1,0387; in assay [2] (0,823 µM peptide) it was 0,8902; in assay [2] (22,2 µM peptide), 0,9184; in assay [2] (2,4691 µM peptide), 0,9673; in assay [2] (7,4074 µM peptide) it was 0,9421; in assay [2] (66,6667 µM peptide) it was 1,0486. Also, in assay [3] (setting [6]), the “EBV Norm MEAN” value was determined as 0.7752. Besides, the “HCV Norm MEAN” value in assay [4] (setting [7]) is 0.7895. Besides, the “HIV1 Norm MEAN” value in assay [5] (setting [8]) is on record as 0.5462.
Take “CPEP74: peptide of the viral peptide library; sequence page not shown (ALGISYGRKKRRQ)”: the “Francisella novicida Norm AUC” value in assay [1] is listed as 1.149. For the same substance, the “Neuraminidase activity normalized to vehicle” value in assay [2] (200 µM peptide) is given as 0,8907; in assay [2] (0,823 µM peptide), 0,913; in assay [2] (22,2 µM peptide), 0,9469; in assay [2] (2,4691 µM peptide), 1,0192; in assay [2] (7,4074 µM peptide) it was 0,9165; in assay [2] (66,6667 µM peptide), 0,9895. Besides, the “EBV Norm MEAN” value in assay [3] (setting [9]) is given as 1.663. The “HCV Norm MEAN” value in assay [4] (setting [10]) came to 0.6842. Also, in assay [5] (setting [11]), the “HIV1 Norm MEAN” value is reported as 1.112.
For LNSLF [CPEP143], the “Francisella novicida Norm AUC” value in assay [1] was 1.175. Moreover, the “Neuraminidase activity normalized to vehicle” value in assay [2] (200 µM peptide) was 0,8484; in assay [2] (0,823 µM peptide) it was 0,6928; in assay [2] (22,2 µM peptide), 0,8423; in assay [2] (2,4691 µM peptide), 0,7636; in assay [2] (7,4074 µM peptide) it was 0,8039; in assay [2] (66,6667 µM peptide) it was 0,8807. Besides, the “EBV Norm MEAN” value in assay [3] (setting [9]) worked out at 1.147. The “HCV Norm MEAN” value in assay [4] (setting [10]) is 0.2751. In addition, the “HIV1 Norm MEAN” value in assay [5] (setting [11]) worked out at 0.7905.
IVISDSEEE [CPEP121]: the “Francisella novicida Norm AUC” value in assay [1] is 1.126. Besides, the “Neuraminidase activity normalized to vehicle” value in assay [2] (200 µM peptide) is on record as 1,0697; in assay [2] (0,823 µM peptide) it was 1,0507; in assay [2] (22,2 µM peptide), 1,0096; in assay [2] (2,4691 µM peptide), 1,0097; in assay [2] (7,4074 µM peptide), 0,9639; in assay [2] (66,6667 µM peptide), 1,0552. Further, the “EBV Norm MEAN” value in assay [3] (setting [9]) is on record as 1.138. Moreover, in assay [4] (setting [10]), the “HCV Norm MEAN” value is 0.7416. In addition, the “HIV1 Norm MEAN” value in assay [5] (setting [11]) stood at 0.9208.
In the case of RRPSRPFRK [CPEP88], the “Francisella novicida Norm AUC” value in assay [1] was 1.028. For the same substance, the “Neuraminidase activity normalized to vehicle” value is 0,55 in assay [2] (200 µM peptide); 0,9984 in assay [2] (0,823 µM peptide); 0,7716 in assay [2] (22,2 µM peptide); 0,8217 in assay [2] (2,4691 µM peptide); 0,8463 in assay [2] (7,4074 µM peptide); 0,6969 in assay [2] (66,6667 µM peptide). Besides, in assay [3] (setting [9]), the “EBV Norm MEAN” value was 0.9654. Moreover, the “HCV Norm MEAN” value in assay [4] (setting [10]) was determined as 0.6746. For the same substance, in assay [5] (setting [11]), the “HIV1 Norm MEAN” value is 0.3045.
In the case of PDSDPQIPPPYVEPTA [CPEP138], in assay [1], the “Francisella novicida Norm AUC” value was 0.9657. In addition, the “Neuraminidase activity normalized to vehicle” value is 1,0087 in assay [2] (200 µM peptide); 1,063 in assay [2] (0,823 µM peptide); 1,1918 in assay [2] (22,2 µM peptide); 0,9934 in assay [2] (2,4691 µM peptide); 1,0804 in assay [2] (7,4074 µM peptide); 1,0379 in assay [2] (66,6667 µM peptide). For the same substance, the “EBV Norm MEAN” value in assay [3] (setting [6]) is 0.9708. Moreover, in assay [4] (setting [7]), the “HCV Norm MEAN” value came out at 1.015. Further, the “HIV1 Norm MEAN” value in assay [5] (setting [8]) is reported as 0.606.
In the case of EDPNEE [CPEP68], in assay [1], the “Francisella novicida Norm AUC” value is 0.6174. Also, the “Neuraminidase activity normalized to vehicle” value is recorded as 0,7574 in assay [2] (200 µM peptide); 0,7462 in assay [2] (0,823 µM peptide); 0,8576 in assay [2] (22,2 µM peptide); 0,7296 in assay [2] (2,4691 µM peptide); 0,7652 in assay [2] (7,4074 µM peptide); 0,95 in assay [2] (66,6667 µM peptide). In addition, the “EBV Norm MEAN” value in assay [3] (setting [9]) is 0.4757. Moreover, the “HCV Norm MEAN” value in assay [4] (setting [10]) was determined as 0.2553. Further, the “HIV1 Norm MEAN” value in assay [5] (setting [11]) was found to be 1.205.
Consider IHTHARFLIT [CPEP139], for which the “Francisella novicida Norm AUC” value in assay [1] is 1.233. Also, the “Neuraminidase activity normalized to vehicle” value is reported as 0,8832 in assay [2] (200 µM peptide); 1,1262 in assay [2] (0,823 µM peptide); 0,9135 in assay [2] (22,2 µM peptide); 1,0704 in assay [2] (2,4691 µM peptide); 1,0144 in assay [2] (7,4074 µM peptide); 0,8125 in assay [2] (66,6667 µM peptide). The “EBV Norm MEAN” value in assay [3] (setting [9]) is 1.5606. For the same substance, in assay [4] (setting [10]), the “HCV Norm MEAN” value worked out at 0.5677. In addition, the “HIV1 Norm MEAN” value in assay [5] (setting [11]) is given as 2.216.
Turning to MSSDLRLTLLELVRRL [CPEP66], in assay [1], the “Francisella novicida Norm AUC” value is 1.55. Also, the “Neuraminidase activity normalized to vehicle” value was 1,1231 in assay [2] (200 µM peptide); 1,0081 in assay [2] (0,823 µM peptide); 1,2015 in assay [2] (22,2 µM peptide); 1,0026 in assay [2] (2,4691 µM peptide); 1,0851 in assay [2] (7,4074 µM peptide); 1,0904 in assay [2] (66,6667 µM peptide). Further, the “EBV Norm MEAN” value in assay [3] (setting [6]) turned out to be 1.239. Moreover, the “HCV Norm MEAN” value in assay [4] (setting [7]) was found to be 1.3108. For the same substance, the “HIV1 Norm MEAN” value in assay [5] (setting [8]) is listed as 8.878.
For the substance AHQNSQTHQASLSKQ [CPEP43], the “Francisella novicida Norm AUC” value in assay [1] is given as 1.137. Also, the “Neuraminidase activity normalized to vehicle” value is recorded as 0,8034 in assay [2] (200 µM peptide); 0,7858 in assay [2] (0,823 µM peptide); 0,9843 in assay [2] (22,2 µM peptide); 0,876 in assay [2] (2,4691 µM peptide); 0,8511 in assay [2] (7,4074 µM peptide); 0,7841 in assay [2] (66,6667 µM peptide). Also, the “EBV Norm MEAN” value in assay [3] (setting [6]) is given as 0.682. In addition, the “HCV Norm MEAN” value in assay [4] (setting [7]) was found to be 1.077. The “HIV1 Norm MEAN” value in assay [5] (setting [8]) stood at 0.3977.
Consider RYSKRRHGRR [CPEP118], for which the “Francisella novicida Norm AUC” value in assay [1] is listed as 1.247. The “Neuraminidase activity normalized to vehicle” value in assay [2] (200 µM peptide) was 0,7942; in assay [2] (0,823 µM peptide), 0,9639; in assay [2] (22,2 µM peptide) it was 0,7875; in assay [2] (2,4691 µM peptide) it was 0,9014; in assay [2] (7,4074 µM peptide), 0,7974; in assay [2] (66,6667 µM peptide), 0,7776. Moreover, the “EBV Norm MEAN” value in assay [3] (setting [9]) came to 1.996. The “HCV Norm MEAN” value in assay [4] (setting [10]) came to 0.2514. Besides, the “HIV1 Norm MEAN” value in assay [5] (setting [11]) was 1.129.
For PVQES [CPEP44], in assay [1], the “Francisella novicida Norm AUC” value is 0.7515. For the same substance, the “Neuraminidase activity normalized to vehicle” value is 0,8825 in assay [2] (200 µM peptide); 0,8116 in assay [2] (0,823 µM peptide); 0,9052 in assay [2] (22,2 µM peptide); 0,843 in assay [2] (2,4691 µM peptide); 0,7952 in assay [2] (7,4074 µM peptide); 1,0152 in assay [2] (66,6667 µM peptide). For the same substance, in assay [3] (setting [9]), the “EBV Norm MEAN” value came out at 1.192. For the same substance, the “HCV Norm MEAN” value in assay [4] (setting [10]) worked out at 0.1889. In addition, in assay [5] (setting [11]), the “HIV1 Norm MEAN” value is recorded as 2.9976.
In the case of QRRGRTGRG [CPEP40], in assay [1], the “Francisella novicida Norm AUC” value is 1.732. Moreover, the “Neuraminidase activity normalized to vehicle” value in assay [2] (200 µM peptide) is recorded as 0,9281; in assay [2] (0,823 µM peptide), 1,0647; in assay [2] (22,2 µM peptide) it was 1,004; in assay [2] (2,4691 µM peptide) it was 0,9944; in assay [2] (7,4074 µM peptide), 1,0761; in assay [2] (66,6667 µM peptide), 0,9318. Also, the “EBV Norm MEAN” value in assay [3] (setting [9]) turned out to be 0.7195. Also, the “HCV Norm MEAN” value in assay [4] (setting [10]) turned out to be 0.7133. In addition, the “HIV1 Norm MEAN” value in assay [5] (setting [11]) stood at 0.4037.
Consider RRRETQV [CPEP148], for which, in assay [1], the “Francisella novicida Norm AUC” value is recorded as 0.7414. For the same substance, the “Neuraminidase activity normalized to vehicle” value in assay [2] (200 µM peptide) is 0,7433; in assay [2] (0,823 µM peptide), 0,8071; in assay [2] (22,2 µM peptide), 0,8272; in assay [2] (2,4691 µM peptide) it was 0,7477; in assay [2] (7,4074 µM peptide), 0,8788; in assay [2] (66,6667 µM peptide), 0,7757. In addition, the “EBV Norm MEAN” value in assay [3] (setting [9]) was determined as 1.54. In addition, the “HCV Norm MEAN” value in assay [4] (setting [10]) stood at 0.1353. Moreover, in assay [5] (setting [11]), the “HIV1 Norm MEAN” value worked out at 0.7674.
In the case of SVWIPVNEGASTSGM [CPEP77], the “Francisella novicida Norm AUC” value in assay [1] stood at 1.232. For the same substance, the “Neuraminidase activity normalized to vehicle” value is given as 0,8793 in assay [2] (200 µM peptide); 0,7817 in assay [2] (0,823 µM peptide); 0,9377 in assay [2] (22,2 µM peptide); 0,8942 in assay [2] (2,4691 µM peptide); 0,7709 in assay [2] (7,4074 µM peptide); 0,8131 in assay [2] (66,6667 µM peptide). The “EBV Norm MEAN” value in assay [3] (setting [6]) turned out to be 1.026. In addition, the “HCV Norm MEAN” value in assay [4] (setting [7]) came out at 0.6626. Also, the “activity in HIV1 screen (in words)” value in assay [5] (20 µM peptide, HeLa P4 cells, β-galactosidase) was “most potent anti-HIV1 peptide”. Moreover, in assay [5] (setting [8]), the “HIV1 Norm MEAN” value came to 0.1545.
Take PEPTAPPEE [CPEP147]: the “Francisella novicida Norm AUC” value in assay [1] is listed as 1.176. Besides, the “EBV Norm MEAN” value in assay [3] turned out to be 0.5114. Besides, in assay [4], the “HCV Norm MEAN” value is 1.15. Besides, the “HIV1 Norm MEAN” value in assay [5] amounted to 0.3632.

The values are drawn from PMC10835127, “Viruses traverse the human proteome through peptide interfaces that can be biomimetically leveraged for drug discovery” (Proceedings of the National Academy of Sciences of the …, 2024).
